Experimental findings from EPA's ToxValDB 9.5 are described below.

The series has as its system Rattus norvegicus.
The mark [1] stands for this setting: subchronic, duration: 90 days, oral, diet, Wistar, no effects.
[2] abbreviates: chronic, duration: 2 years, M/F, clinical chemistry.
The mark [3] stands for this setting: subchronic, duration: 90 days, clinical chemistry.
Where [4] appears, read: reproduction developmental, histopathology: nonneoplastic.
The mark [5] stands for this setting: subchronic, duration: 90 days, oral, diet, M/F, Sprague-Dawley, no effects.
Setting [6] is: subchronic, duration: 90 days, oral, diet, M/F, no effects.

Structures are written as SMILES.

`CC(C)CCCCCCOC(=O)C1CCCCC1C(=O)OCCCCCCC(C)C` (centres undefined) [Diisononyl cyclohexane-1,2-dicarboxylate]: where the note is “subchronic, duration: 13 weeks, M/F, Wistar, clinical chemistry”, the NOAEL amounted to 100 mg/kg-day. For `Cc1occc1SSCc1ccco1` [Furfuryl 2-methyl-3-furyl disulfide], the NOAEL under setting [1] worked out at 0.45 mg/kg-day. The compound `CC(C)(CO)C1OCC2(CO1)COC(C(C)(C)CO)OC2` (centres undefined) returned an NOAEL (subchronic, duration: 90 days, oral, M/F, Sprague-Dawley, no effects) of 2000 mg/kg-day.

Take `CCCOC(=O)c1cc(O)c(O)c(O)c1` [Gallic acid n-propyl ester]: the no observed adverse effect level (NOAEL) by setting is: (subchronic, duration: 13 weeks, oral, diet, M/F, clinical chemistry) 1910 mg/kg-day; (subchronic, duration: 90 days, oral, diet, M/F, hematological) 135 mg/kg-day. Take `CC1=C(O)C(=O)C(C)O1` (centres undefined) [4-Hydroxy-2,5-dimethyl-3(2H)furanone]: the NOAEL worked out at 200 mg/kg-day (chronic, duration: 2 years, M/F, body weight) and 200 mg/kg-day (chronic, duration: 2 years, oral, diet, M/F, Sprague-Dawley, body weight). Consider `CC1CCC2(O1)C(C)(C)CCCC2(C)O` (centres undefined) [6-Hydroxydihydrotheaspirane], for which the NOAEL (subchronic, duration: 90 days, oral, diet, M/F, Crj:CD, food efficiency) stood at 52 mg/kg-day. On to `CC(C)(CO)[C@@H](O)C(=O)NCCC(=O)NCCSSCCNC(=O)CCNC(=O)[C@H](O)C(C)(C)CO` [Pantethine], for which the no-observed-adverse-effect level (NOAEL) (chronic, duration: 54 weeks, M/F, clinical chemistry) amounted to 36 mg/kg-day. Turning to `COc1cc(COC(=O)CCCCCCC(C)C)ccc1O` [Dihydrocapsiate], the NOAEL stood at 300 mg/kg-day (chronic, duration: 26 weeks, oral, gavage, M/F, Sprague-Dawley, histopathology: nonneoplastic); 300 mg/kg-day (subchronic, duration: 13 weeks, oral, gavage, M/F, Sprague-Dawley, clinical chemistry); 300 mg/kg-day (subchronic, duration: 13 weeks, oral, gavage, M/F, Sprague-Dawley, organ weight).

`CCOC(=O)C1OC1(C)c1ccc(C)cc1` (centres undefined) [Ethyl 3-methyl-3-(4-methylphenyl)oxirane-2-carboxylate] had an NOAEL under setting [2] of 35 mg/kg-day. Where the note is “subchronic, duration: 90 days, oral, diet, M/F, Wistar, no effects”, `Cc1occc1SSSSc1ccoc1C` [Bis(2-methyl-3-furyl) tetrasulfide] gave an NOAEL of 0.56 mg/kg-day. Under setting [3], `O=P(c1ccccc1)(c1ccccc1)c1ccccc1` [Triphenylphosphine oxide] showed an NOEL of 2 mg/kg-day.

In turn, `c1ccc(Oc2ccccc2)cc1` [Diphenyl oxide] yielded an NOAEL (subchronic, duration: 90 days, oral, body weight) of 15 mg/kg-day. With `Cc1ccc(C(=O)c2ccccc2)cc1` [4-Methylbenzophenone], under setting [4], the LOAEL stood at 6 mg/kg-day.

For the setting “chronic, duration: 2 years, oral, diet, M/F, Fischer 344, histopathology: neoplastic”, `[Cr+3]` [Chromium (III)] gave an NOAEL of 286 mg/kg-day. Compound `COc1cc(/C=C/C(=O)CC(=O)/C=C/c2ccc(O)c(OC)c2)ccc1O` [Curcumin] showed an NOAEL (reproduction developmental, duration: 24 weeks, oral, diet, M/F, body weight) of at least 250 mg/kg-day. Compound `O=C(c1ccccc1)c1ccccc1` [Benzophenone] showed an LOAEL under setting [4] of 6 mg/kg-day. In turn, `CCC(C)(C)c1ccc(O)c(C(C)(C)CC)c1` [2,4-Di-tert-pentylphenol] showed an NOAEL (subchronic, duration: 90 days, oral, M/F, Wistar, histopathology: nonneoplastic) of 5 mg/kg-day. Where the note is “subchronic, duration: 90 days, oral, drinking water”, `CC(C)=O` [Acetone] had an NOAEL of 900 mg/kg-day.

Consider `CC(=O)N[C@H]1[C@H](O[C@H]2[C@@H](O)[C@@H](CO)O[C@@H](O[C@@H]([C@H](O)[C@@H](O)C=O)[C@H](O)CO)[C@@H]2O)O[C@H](CO)[C@@H](O[C@@H]2O[C@H](CO)[C@H](O)[C@H](O)[C@H]2O)[C@@H]1O` [Lacto-N-neotetraose], for which the NOAEL (subchronic, duration: 90 days, oral, gavage, M/F, Wistar, hematological) stood at 2500 mg/kg-day. Regarding `CCCCC/C=C/C=C/C(=O)NCC(C)C` [(E,E)-N-(2-Methylpropyl)-2,4-decadienamide], the NOAEL (subchronic, duration: 90 days, oral, diet, M/F, Sprague-Dawley, histopathology: nonneoplastic) is 10 mg/kg-day. For `CC(C)CC(=O)N1CCC[C@H](COc2cccc3c2C(N)=NS(=O)(=O)N3)C1`, the no observed adverse effect level (NOAEL) (reproduction developmental, duration: 15 days, oral, gavage, no effects) was 1000 mg/kg-day and the no observed adverse effect level (NOAEL) (subchronic, duration: 13 weeks, oral, diet, M/F, no effects) was found to be 100 mg/kg-day.

Turning to `C=C(C)c1ccc(C)cc1` [1-Methyl-4-(prop-1-en-2-yl)benzene], for the setting “subchronic, duration: 90 days”, the NOAEL was determined as 0.625 mg/kg-day. Turning to `COc1cc(CCCS(=O)(=O)[O-])ccc1OC(Cc1cccc(OC)c1O)CS(=O)(=O)[O-].[Ca+2]` (centres undefined) [Lignosulfonic acid, calcium salt], under setting [1], the NOAEL is 2000 mg/kg-day.

`Cc1cc(SSc2cc(C)oc2C)c(C)o1` [Furan, 3,3'-dithiobis[2,5-dimethyl-] yielded an NOAEL (subchronic, duration: 90 days, no effects) of 0.29 mg/kg-day. `CCCCC(CC)COC(=O)c1ccc(C(=O)OCC(CC)CCCC)c(C(=O)OCC(CC)CCCC)c1` (centres undefined) [Tris(2-ethylhexyl) trimellitate] had an NOAEL (subchronic, duration: 90 days, oral, diet, M/F, Sprague-Dawley, organ weight) of 225 mg/kg-day. In turn, `CCCCOC(=O)c1ccccc1C(=O)OCc1ccccc1` [Benzyl butyl phthalate] came in with an NOAEL (developmental, oral, diet, M/F, development) of 50 mg/kg-day. Compound `CC(S)C(C)S` (centres undefined) [2,3-Butanedithiol] came in with an NOAEL under setting [5] of 0.703 mg/kg-day.

Compound `O=C([O-])c1cc(C(=O)[O-])c2c(n1)C(=O)C(=O)c1cc(C(=O)O)[nH]c1-2.[Na+].[Na+]` showed an NOAEL (subchronic, duration: 90 days, oral, gavage, M/F, Crj:CD) of 100 mg/kg-day. `C/C=C/C=C/C(=O)[O-].[K+]` [Potassium (E,E)-hexa-2,4-dienoate] registered an NOAEL (reproduction developmental, oral, gavage, M/F, Crj:CD, body weight) of 300 mg/kg-day. Where the note is “chronic, M, body weight”, `O=C([O-])c1[nH]n(-c2ccc(S(=O)(=O)[O-])cc2)c(=O)c1N=Nc1ccc(S(=O)(=O)[O-])cc1.[Na+].[Na+].[Na+]` [C.I. Acid Yellow 23] came in with an NOAEL of 984 mg/kg-day. In turn, `Cc1ccc2ncccc2c1` [6-Methylquinoline] gave an NOAEL under setting [6] of 2.2 mg/kg-day. Where the note is “developmental, duration: 19 days, oral, gavage, F, Osborne-Mendel, development”, `O=S(=O)([O-])c1ccc2c(N=Nc3ccc(S(=O)(=O)[O-])c4ccccc34)c(O)c(S(=O)(=O)[O-])cc2c1.[Na+].[Na+].[Na+]` [Amaranth] yielded an NOAEL of 15 mg/kg-day.

Turning to `CCC1SSC(CC)S1` (centres undefined) [3,5-Diethyl-1,2,4-trithiolane], the NOAEL under setting [5] is 0.2 mg/kg-day. Under setting [5], `CCCNC(=O)C(C)(C)COc1cccc2c1C(N)=NS(=O)(=O)N2` gave an NOAEL of 20 mg/kg-day. For `Clc1ccc(-c2ccc(Cl)cc2Cl)cc1` [2,4,4'-Trichlorobiphenyl], the NOAEL under setting [3] was found to be 0.4 mg/kg-day.

Regarding `CC(C)=CC(=O)SC(C)C` [2-Butenethioic acid, 3-methyl-, S-(1-methylethyl) ester], the no-observed-adverse-effect level (NOAEL) (subchronic, duration: 90 days, oral) stood at 6.63 mg/kg-day.

Compound `OCc1ccccc1` [Benzyl alcohol] returned an NOAEL (chronic, duration: 103 weeks, oral, gavage, M/F, no effects) of 400 mg/kg-day. In the case of `CC(C)=CCCC(C)C=O` (centres undefined) [2,6-Dimethylhept-5-enal], the NOAEL (subchronic, duration: 3 months, oral, diet, M/F, organ weight) was found to be 37 mg/kg-day.

In the case of `Cc1occc(=O)c1O` [Maltol], for the setting “chronic, duration: 2 years, oral, diet”, the NOEL is 100 mg/kg-day.

Turning to `CCOC(=O)C1OC1(C)c1ccccc1` (centres undefined) [Ethyl methylphenylglycidate], the NOAEL under setting [2] worked out at 35 mg/kg-day. Regarding `CC(=O)CSCc1ccco1` [1-(2-Furfurylthio)propanone], the NOAEL under setting [6] was determined as 3.76 mg/kg-day.

Regarding `c1ccc2cnccc2c1` [Isoquinoline], the NOAEL (subchronic, duration: 90 days, oral, gavage, M/F, Sprague-Dawley, no effects) came out at 3 mg/kg-day. In turn, `OC1CSC(O)CS1` (centres undefined) [1,4-Dithiane-2,5-diol] returned an NOAEL under setting [5] of 3.14 mg/kg-day.

Consider `CCCCCCCCCCCCCCCCCC(=O)OC(C)C(=O)OC(C)C(=O)[O-].CCCCCCCCCCCCCCCCCC(=O)OC(C)C(=O)OC(C)C(=O)[O-].[Ca+2]` (centres undefined) [Calcium stearoyl-2-lactylate], for which, for the setting “chronic, duration: 1 years, M/F, Wistar, no effects”, the NOAEL stood at 2200 mg/kg-day.

As to `CC/C=C/CCOC(=O)C(CC)CC` [Hex-3-enyl 2-ethylbutanoate], the NOAEL is, setting by setting: (reproduction developmental, duration: 10 days, oral, gavage, F, Sprague-Dawley, no effects) 200 mg/kg-day; (reproduction developmental, duration: 10 days, oral, gavage, F, no effects) 200 mg/kg-day.

`Clc1cc2c(cc1Cl)Oc1cc(Cl)c(Cl)cc1O2` [2,3,7,8-Tetrachlorodibenzo-p-dioxin] showed an LOAEL (reproduction developmental, injection, subcutaneous, Wistar, behavior) of 2.5e-05 mg/kg-day.

Consider `COC(=O)CCSCc1ccco1` [Methyl 3-{[(furan-2-yl)methyl]sulfanyl}propanoate], for which the NOAEL (subchronic, duration: 90 days, oral, diet, M/F, clinical chemistry) is 5.78 mg/kg-day. With `ClC1=C(Cl)[C@]2(Cl)[C@@H]3[C@@H]4C[C@@H]([C@H]5O[C@@H]45)[C@@H]3[C@@]1(Cl)C2(Cl)Cl` [Dieldrin], the LD50 (acute, oral, mortality) was found to be 25 mg/kg-day. `CC1S[C@H](C)N[C@H](C)S1` (some centres undefined) [Thialdine]: for the setting “subchronic, duration: 90 days, oral, diet, M, histopathology: nonneoplastic”, the NOAEL came to 9.3 mg/kg-day. Consider `CN(C)C` [Trimethylamine], for which the NOAEL (subchronic, duration: 90 days) was 90 mg/kg-day.

As to `CC(=O)c1cccc2ccccc12` [1'-Acetonaphthone], under setting [6], the NOAEL was found to be 33 mg/kg-day.

In turn, `Cc1cc2nc3c(=O)[nH]c(=O)nc-3n(C[C@H](O)[C@H](O)[C@H](O)COP(=O)([O-])O)c2cc1C.[Na+]` [Riboflavin 5'-(dihydrogen phosphate), sodium salt (1:1)] returned an NOAEL (subchronic, duration: 90 days, M/F, Wistar, no effects) of 160 mg/kg-day. Under setting [5], `SCCCCCCCCS` [1,8-Octanedithiol] gave an NOAEL of 0.705 mg/kg-day.

For orientation: NOAEL means the highest dose or exposure tested at which no adverse effect was seen. In general, LOAEL refers to the lowest dose or exposure tested at which an adverse effect was seen.
